Measured values published in PMC12687424, “Penetrant PKCβ mutation in ATLL displays a mixed gain-of-function” (Biochemical Journal, 2025).

How the values were obtained:
[1] = test system: D427N PKCβII catalytic domain; assay: ADP-Glo in vitro kinase assay with ATP-competitive inhibitors, D427N compared with WT; assay type: biochemical; conditions: 50 μM ATP, 200 μM PSS peptide; IC50 of D427N higher than WT
Experimental: Given the proximity of the mutation to the nucleotide pocket of the kinase, we compared the potency of three ATP-competitive inhibitors in WT and D427N PKCβII to assess if existing PKC inhibitors could be used to target the mutant. We assayed WT and D427N PKCβII catalytic domains at 50 μM ATP with one indolocarbazole inhibitor (UCN-01) and two bisindolylmaleimide inhibitors (BIM-1 and the PKCβ-specific inhibitor ruboxistaurin) (Figure 5A–C). […] These differences were 17-fold for ruboxistaurin, 9-fold for BIM-1 and 25-fold for UCN-01.
Figure 5 Pharmacology of D427N PKCβII. A–C – Representative dose-response curves when WT and D427N PKCβII catalytic domains were assayed with the indicated inhibitors, 50 μM ATP and 200 μM PSS peptide. ADP produced in the assays was measured by luminescence and converted to specific activity using an ADP standard curve. Error bars indicate the mean ± SD from three technical replicates. D – IC50 values obtained from fitting curves in (A-C). Error bars indicate the mean ± SD from three independent dose-response assays (*=P<0.05, **=P<0.01 versus WT by t-test with Holm–Šídák correction for multiple comparisons). E,F – Orthogonal views of Ruboxistaurin (pink) in the PKCβII nucleotide-binding pocket (cyan). A σA-weighted |2Fo-Fc| map is shown contoured at 1.5 σ. The location of the N427 side chain is indicated. Figure was generated using UCSF ChimeraX.
Kinase assays were carried out in white, 384-well OptiPlates (PerkinElmer) using an ADP-Glo kit (Promega) on a scale of […] for the kinase reaction. Kinase was diluted in assay buffer (40 mM Tris-HCl pH 7.5, 20 mM MgCl2, 0.1 mg/ml BSA (NEB, #B9000S), 1 mM DTT) and added to the plate (typically 0.5–1 ng/well). The assay was started by adding the substrates at a final concentration of 50–300 μM [ATP and either histone type III-S (Sigma, #H5505), MBP (Sigma, #M1891), or a peptide]. […] Luminescence was recorded using an EnSight MultiMode Plate Reader (PerkinElmer), and the slope of a standard curve was used to convert luminescence values to specific activity in nmol ADP/min/mg.

[2] = biological target: D427N PKCβII catalytic domain; assay: Fluorescence polarisation binding of fluorescein-PSS peptide, D427N; conditions: catalytic domains
Experimental: Figure 3 D427N PKCβII has an altered substrate repertoire in vitro . A–D – Representative titration curves from assays of WT or D427N PKCβII catalytic domains with excess ATP and titrations of either histone type III-S, MBP, PSS peptide or BTK S180 peptide. Specific activity in nmol/min/mg was calculated using an ADP standard curve. Error bars indicate the mean ± SD from three technical replicates. E and F – Km and Vmax values of WT and D427N PKCβII catalytic domains for each substrate, obtained from Michaelis–Menten fits of titration curves in (A-D). Error bars indicate the mean ± SD from three independent assays (*=P<0.05, **=P<0.01 versus WT by t-test with Holm–Šídák correction for multiple comparisons). G – Representative binding curves of anisotropy vs protein concentration when WT or D427N PKCβII catalytic domains were titrated into fluorescein–PSS peptide; KD values are shown ± the error of the fit. […] H – Differential heat map of WT and D427N PKCβII activity towards a PamChip microarray, calculated from log2 fold change values relative to a no ATP control array. […] The measured ligand is the PSS peptide, and WT and D427N are protein variants.
Fluorescence polarisation (FP) experiments were performed using an FP-8500 spectrofluorometer (Jasco). […] Equilibrium dissociation constants were determined by plotting anisotropy as a function of PKCβII catalytic domain concentration. […]

| difference in IC50, D427N PKCβII catalytic domain versus WT [1] [fold] | binding affinity of D427N PKCβII relative to WT (from KD values) [2] | Structure (SMILES) |
| --- | --- | --- |
| 9 |  | CN(C)CCCn1cc(C2=C(c3c[nH]c4ccccc34)C(=O)NC2=O)c2ccccc21 [BIM-1] |
| 17 |  | CN(C)C[C@@H]1CCn2cc(c3ccccc32)C2=C(C(=O)NC2=O)c2cn(c3ccccc23)CCO1 [ruboxistaurin] |
|  | two-fold weaker affinity than WT | CC(C)C[C@H](NC(=O)[C@H](CO)NC(=O)CNC(=O)[C@H](CCCCN)NC(=O)[C@H](CCCNC(=N)N)NC(=O)[C@H](C)NC(=O)[C@H](Cc1ccccc1)NC(=O)[C@H](CCCNC(=N)N)NC(=O)[C@@H](NC(=O)[C@@H](NC(=O)[C@H](CO)NC(=O)[C@H](CCC(=O)O)NC(=O)c1ccc2c(c1)C(=O)OC21c2ccc(O)cc2Oc2cc(O)ccc21)[C@@H](C)O)C(C)C)C(=O)N[C@@H](CCCNC(=N)N)C(=O)N[C@@H](CCC(N)=O)C(=O)N[C@@H](CCCCN)C(=O)N[C@@H](CC(N)=O)C(=O)N[C@H](C(=O)N[C@@H](Cc1c[nH]cn1)C(N)=O)C(C)C |

| Structure (SMILES) | difference in IC50, D427N PKCβII catalytic domain versus WT [1] [fold] | binding affinity of D427N PKCβII relative to WT (from KD values) [2] |
| --- | --- | --- |
| CNC1CC2OC(C)(C1OC)n1c3ccccc3c3c4c(c5c6ccccc6n2c5c31)C(=O)NC4O (stereo not shown) [UCN-01] | 25 |  |
